In one assay the target is VR (Homo sapiens, UniProt Q8NER1). Conditions: typical value, non-selective cation channel blocker binding to VR; cited from earlier work.
The next assay concerns the target T1, human capsaicin receptor (Homo sapiens, UniProt Q8NER1).
T1 construct: expressed in transfected cells
Briefly: Calcium mobilization assay, determination of antagonist activity (Example 6). In kind it is cell-based. Conditions: Table III; assay provided in Example 6; cells expressing human capsaicin receptor, capsaicin at EC50. An outline of the steps: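 Stable HEK293 clones expressing full-length human capsaicin receptor, loaded with Fluo-3 AM in KRH buffer pH 7.4 (1–2 h, 37 °C). Test compound (1–5 μM final) preincubated 0.5–6 h at room temperature in the dark, then capsaicin added at its EC50. FLIPR/Fluoroskan calcium signal; IC50 as concentration halving the capsaicin response.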
(In general: Calcium flux is commonly read through the fluorescence of an indicator in the cells.)

A word on the Ki: it is the dissociation constant of the complex between target and ligand, obtained from inhibition or displacement. One may read the IC50 as the midpoint of a concentration-inhibition curve.

Each structure is given as a SMILES string.

T1 sequence (Q8NER1 whole entry): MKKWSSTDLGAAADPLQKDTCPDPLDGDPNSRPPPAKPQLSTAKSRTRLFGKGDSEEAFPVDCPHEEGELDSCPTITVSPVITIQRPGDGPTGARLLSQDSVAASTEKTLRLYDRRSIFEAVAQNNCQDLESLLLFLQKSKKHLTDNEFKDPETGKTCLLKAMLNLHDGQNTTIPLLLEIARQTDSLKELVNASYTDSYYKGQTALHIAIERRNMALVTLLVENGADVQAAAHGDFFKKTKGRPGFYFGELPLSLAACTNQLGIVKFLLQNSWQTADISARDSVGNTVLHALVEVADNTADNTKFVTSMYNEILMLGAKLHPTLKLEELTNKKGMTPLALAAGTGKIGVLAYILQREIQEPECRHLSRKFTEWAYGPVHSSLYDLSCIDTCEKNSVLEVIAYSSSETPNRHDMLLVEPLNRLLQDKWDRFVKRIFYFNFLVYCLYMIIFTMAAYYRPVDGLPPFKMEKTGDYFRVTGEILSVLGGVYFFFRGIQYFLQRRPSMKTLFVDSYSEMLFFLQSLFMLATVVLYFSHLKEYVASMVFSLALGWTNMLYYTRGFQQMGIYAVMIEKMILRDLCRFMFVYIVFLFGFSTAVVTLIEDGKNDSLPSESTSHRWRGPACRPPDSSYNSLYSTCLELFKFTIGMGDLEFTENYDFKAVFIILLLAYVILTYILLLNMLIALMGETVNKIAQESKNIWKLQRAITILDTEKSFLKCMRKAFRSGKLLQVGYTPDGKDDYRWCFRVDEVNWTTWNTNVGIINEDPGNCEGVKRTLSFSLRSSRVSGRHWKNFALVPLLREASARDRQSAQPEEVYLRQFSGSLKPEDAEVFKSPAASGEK
VR, sequence (Q8NER1 whole entry): as above

Consider `Cl.Cl.Cl.Cl.Cl.Cl.N.N.N.N.N.N.N.N.N.N.N.N.N.N.[O-2].[O-2].[Ru+3].[Ru+3].[Ru+4]` [ruthenium red], for which the Ki at VR was no less than 140 µM.

In the case of `CC(C)Nc1nc(Nc2ccnc3nc(-c4nnccc4C(F)(F)F)cnc23)ccc1C(F)(F)F` [Compound 48, N2-isopropyl-3-(trifluoromethyl)-N-~6~-{3-[4-(trifluoromethyl)pyridazin-3-yl]pyrido[2,3-b]pyrazin-8-yl}pyridine-2,6-diamine], on human capsaicin receptor, the half-inhibitory concentration (IC50) is less than 1000 nM.

With `CCCOCCNc1cc(C(F)(F)F)c(-c2cnc3c(Nc4ccc(C(F)(F)F)cn4)ccnc3n2)nn1` [Compound 52, 3-[6-[(2-propoxyethyl)amino]-4-(trifluoromethyl)pyridazin-3-yl]-N-[5-(trifluoromethyl)pyridin-2-yl]pyrido[2,3-b]pyrazin-8-amine], at human capsaicin receptor, the IC50 was less than 1000 nM.

For the compound `NC(=O)CNc1cc(C(F)(F)F)c(-c2cnc3c(Nc4ccc(C(F)(F)F)cn4)ccnc3n2)nn1` [Compound 113, N2-[5-(trifluoromethyl)-6-(8-{[5-(trifluoromethyl)pyridin-2-yl]amino}pyrido[2,3-b]pyrazin-3-yl)pyridazin-3-yl]glycinamide], the IC50 at human capsaicin receptor is less than 1000 nM.

With `CN(C)CCNc1cc(C(F)(F)F)c(-c2cnc3c(Nc4ccc(C(F)(F)F)cn4)ccnc3n2)nn1` [Compound 69, N,N-dimethyl-N′-[5-(trifluoromethyl)-6-(8-{[5-(trifluoromethyl)pyridin-2-yl]amino}pyrido[2,3-b]pyrazin-3-yl)pyridazin-3-yl]ethane-1,2-diamine], the IC50 on human capsaicin receptor was less than 1000 nM.

Take `CCOc1nc(Nc2ccnc3nc(-c4nnccc4C(F)(F)F)cnc23)ccc1C(F)(F)F` [Compound 44, N-[6-ethoxy-5-(trifluoromethyl)-2-pyridinyl]-3-[4-(trifluoromethyl)-3-pyridazinyl]pyrido[2,3-b]pyrazin-8-amine]: the IC50 at human capsaicin receptor is less than 1000 nM.

In the case of `C#CCN(C)c1cc(C(F)(F)F)c(-c2cnc3c(Nc4ccc(C(F)(F)F)cn4)ccnc3n2)nn1` [Compound 125, 3-{6-[methyl(prop-2-yn-1-yl)amino]-4-(trifluoromethyl)pyridazin-3-yl}-N-[5-(trifluoromethyl)pyridin-2-yl]pyrido[2,3-b]pyrazin-8-amine], the IC50 on human capsaicin receptor was less than 1000 nM.

Turning to `OCCCCNc1cc(C(F)(F)F)c(-c2cnc3c(Nc4ccc(C(F)(F)F)cn4)ccnc3n2)nn1` [Compound 172, 4-{[5-(trifluoromethyl)-6-(8-{[5-(trifluoromethyl)pyridin-2-yl]amino}pyrido[2,3-b]pyrazin-3-yl)pyridazin-3-yl]amino}butan-1-ol], on human capsaicin receptor, the IC50 is less than 1000 nM.

On to `CC(C)(C)Nc1cc(C(F)(F)F)c(-c2cnc3c(Nc4ccc(C(F)(F)F)cn4)ccnc3n2)nn1` [Compound 161, 3-[6-(tert-butylamino)-4-(trifluoromethyl)pyridazin-3-yl]-N-[5-(trifluoromethyl)pyridin-2-yl]pyrido[2,3-b]pyrazin-8-amine], for which, on human capsaicin receptor, the IC50 was less than 1000 nM.

As to `CC(=O)c1cc(C(F)(F)F)c(-c2cnc3c(Nc4ccc(C(F)(F)F)cn4)ccnc3n2)nn1` [Compound 68, 1-[5-(trifluoromethyl)-6-(8-{[5-(trifluoromethyl)pyridin-2-yl]amino}pyrido[2,3-b]pyrazin-3-yl)pyridazin-3-yl]ethanone], the IC50 at human capsaicin receptor was less than 1000 nM.

For `CN(CC#N)c1cc(C(F)(F)F)c(-c2cnc3c(Nc4ccc(C(F)(F)F)cn4)ccnc3n2)nn1` [Compound 124, {methyl[5-(trifluoromethyl)-6-(8-{[5-(trifluoromethyl)pyridin-2-yl]amino}pyrido-[2,3-b]pyrazin-3-yl)pyridazin-3-yl]amino}acetonitrile], the IC50 at human capsaicin receptor was less than 1000 nM.

With `OCCCCCNc1cc(C(F)(F)F)c(-c2cnc3c(Nc4ccc(C(F)(F)F)cn4)ccnc3n2)nn1` [Compound 115, 5-{[5-(trifluoromethyl)-6-(8-{[5-(trifluoromethyl)pyridin-2-yl]amino}pyrido[2,3-b]pyrazin-3-yl)pyridazin-3-yl]amino}pentan-1-ol], the IC50 on human capsaicin receptor is less than 1000 nM.

For the compound `FC(F)(F)c1ccc(Nc2ccnc3nc(-c4nnc(N5CCOCC5)cc4C(F)(F)F)cnc23)nc1` [Compound 53, 3-[6-morpholin-4-yl-4-(trifluoromethyl)pyridazin-3-yl]-N-[5-(trifluoromethyl)pyridin-2-yl]pyrido[2,3-b]pyrazin-8-amine], the IC50 on human capsaicin receptor is less than 1000 nM.

As for `CCN(C)c1cc(C(F)(F)F)c(-c2cnc3c(Nc4ccc(C(F)(F)F)cn4)ccnc3n2)nn1` [Compound 180, 3-{6-[ethyl(methyl)amino]-4-(trifluoromethyl)pyridazin-3-yl}-N-[5-(trifluoromethyl)pyridin-2-yl]pyrido[2,3-b]pyrazin-8-amine], on human capsaicin receptor, the IC50 is less than 1000 nM.

For the compound `CC(C)(CO)Nc1cc(C(F)(F)F)c(-c2cnc3c(Nc4ccc(C(F)(F)F)cn4)ccnc3n2)nn1` [Compound 171, 2-methyl-2-{[5-(trifluoromethyl)-6-(8-{[5-(trifluoromethyl)pyridin-2-yl]amino}pyrido[2,3-b]pyrazin-3-yl)pyridazin-3-yl]amino}propan-1-ol], the IC50 on human capsaicin receptor was less than 1000 nM.

The values above are taken from patent US20080175794A1, “Substituted Pyridazinyl- and Pyrimidinyl-Quinolin-4-Ylamine Analogues” (NEUROGEN CORPORATION, priority 2005, published 2008).
